Tests used:
[1] = system: pre-osteoblastic cell line MC3T3-E1 subclone 4; experiment: Osteoblast alkaline phosphatase (ALP) activity; format: cell-based; conditions: 7 days of differentiation, without ascorbic acid; MK-7 3 μM, VitD 1 nM, VitA 100 nM (FIG. 1A)
Excerpt: (§1) The pre-osteoblastic cell line MC3T3-E1 subclone 4 (CRL-2593) was purchased from ATCC (Manassas; Virginia, USA). Cells were maintained in growth medium (GM) composed of ascorbic acid-free aMEM (ThermoFisher Scientific), supplemented with 10% fetal calf serum (FCS, ThermoFisher Scientific) and 1% penicillin/streptomycin. All culture media were refreshed every 2-3 days. Cells were passaged with trypsin/EDTA solution at less than 80% confluence. To induce differentiation into osteoblasts, cells were seeded at 5×10^4 cells/cm^2 and grown to confluency in GM for 24 h. Then, the medium was switched to differentiation medium (DM) composed of GM supplemented with 10 mM β-glycerophosphate and treatment solutions of interest. Ascorbic acid 50 μg/ml was also added to the DM depending on the experiment.
MC3T3-E1 subclone 4 cells were differentiated for 7 days without ascorbic acid, except for the positive control, and with the following treatment solutions: a mix composed of 3μM of vit.K2 (menaquinone-7), 100 nM of vit.A (all-trans-retinoic acid) and 1 nM of vit.D (1a,25-Dihydroxyvitamin D3); a mix called “SCFA20” composed of 15 μM of sodium acetate, 4 μM of sodium propionate and 1 μM of sodium butyrate; a mix called “SCFA50” composed of 37.5 μM of sodium acetate, 10 μM of sodium propionate and 2.5 μM of sodium butyrate; a mix called “SCFA60” composed of 45 μM of sodium acetate, 12 μM of sodium propionate and 3 μM of sodium butyrate. The vitamin mix was also combined to the 3 different combinations of short-chain fatty acids (SCFA).
After 7 days of differentiation, cells were then collected for alkaline phosphatase (ALP) activity measurement as described previously with minor modifications. […] Enzymatic reaction was monitored at 405 nm after 4-Nitrophenyl phosphate disodium salt hexahydrate addition. Michaelis-Menten kinetics were evaluated at 30° C. for 30 min. […] The activity value was normalized by protein content measured via the Pierce BCA Protein Assay Kit (ThermoFisher Scientific) according to the manufacturer's instructions.

[2] = system: osteocalcin; experiment: Osteocalcin mRNA levels (qPCR) in pre-osteoblastic cell line MC3T3-E1 subclone 4; format: cell-based; conditions: 21 days of differentiation, without ascorbic acid; MK-7 3 μM, VitD 1 nM, VitA 100 nM (FIG. 1B)
Excerpt: as §1
MC3T3-E1 subclone 4 cells were differentiated for 21 days (in DM without ascorbic acid except for the positive control) or 28 days (in DM containing ascorbic acid). Cells were then collected for gene expression analysis. […] RNA concentrations were measured using the DropSense96 (TRINEAN, Gentbrugge, Belgium).
CDNAs were synthetized using High-Capacity cDNA Reverse Transcription Kit (AppliedBiosystems; Waltham, Massachusetts, USA) according to the manufacturer's instructions. […] The relative gene expression was evaluated via the 2^-ΔCt method.

SMILES | ALP activity (marker of osteoblast differentiation) [1] | Osteocalcin mRNA levels [2]
C=C1/C(=C\C=C2/CCC[C@]3(C)[C@@H]([C@H](C)CCCC(C)(C)O)CC[C@@H]23)C[C@@H](O)C[C@@H]1O [vitamin D, 1α,25-Dihydroxyvitamin D3] | significant effect | no significant effect
CC1=C(/C=C/C(C)=C/C=C/C(C)=C/C(=O)O)C(C)(C)CCC1 [vitamin A, all-trans-retinoic acid] | significant effect | no significant effect
CC(C)=CCC/C(C)=C/CC/C(C)=C/CC/C(C)=C/CC/C(C)=C/CC/C(C)=C/CC/C(C)=C/CC1=C(C)C(=O)c2ccccc2C1=O [vitamin K2, menaquinone-7] | no significant effect | 

Source: patent US20260315410A1, “COMBINATION FOR ENHANCING BONE GROWTH AND/OR BONE STRENGTH” (SOCIÉTÉ DES PRODUITS NESTLÉ S.A., priority 2023, published 2026)
